IC50 data for 23 compounds are collected here from ChEMBL document CHEMBL1126549, “A novel series of selective, non-peptide inhibitors of angiotensin II binding to the AT2 site” (J Med Chem, 1993).

The IC50 is the concentration that inhibits the measured activity by half. High values mean lower potency, low ones higher potency.

Assay [1] addresses T1, Angiotensin II receptor (AT-1) type-1 (Rattus norvegicus, UniProt P29089+P25095).
T1 sequence (P29089 whole entry): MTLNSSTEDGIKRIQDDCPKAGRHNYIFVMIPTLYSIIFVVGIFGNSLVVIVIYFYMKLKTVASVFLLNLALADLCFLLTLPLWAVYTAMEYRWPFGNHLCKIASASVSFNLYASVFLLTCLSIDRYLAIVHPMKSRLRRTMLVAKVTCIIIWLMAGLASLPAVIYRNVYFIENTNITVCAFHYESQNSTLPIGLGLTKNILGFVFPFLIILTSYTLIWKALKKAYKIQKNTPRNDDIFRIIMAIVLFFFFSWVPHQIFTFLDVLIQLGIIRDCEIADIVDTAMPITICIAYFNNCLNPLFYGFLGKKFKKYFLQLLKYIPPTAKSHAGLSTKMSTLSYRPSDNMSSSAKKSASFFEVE
T1 sequence (P25095 whole entry): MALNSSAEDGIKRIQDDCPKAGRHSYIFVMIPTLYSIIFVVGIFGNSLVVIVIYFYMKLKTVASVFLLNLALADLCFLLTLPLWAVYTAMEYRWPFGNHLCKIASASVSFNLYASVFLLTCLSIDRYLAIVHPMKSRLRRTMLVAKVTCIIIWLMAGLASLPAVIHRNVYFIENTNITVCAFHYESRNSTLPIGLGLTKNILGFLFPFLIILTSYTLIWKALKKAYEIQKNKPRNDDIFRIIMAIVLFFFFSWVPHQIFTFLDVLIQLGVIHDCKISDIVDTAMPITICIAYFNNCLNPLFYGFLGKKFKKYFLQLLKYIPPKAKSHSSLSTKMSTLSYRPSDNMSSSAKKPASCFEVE
As to the kind of experiment: Binding affinity towards Angiotensin II receptor, type 1 in rat isolated adrenal cortical microsomes. The arrangement: species or system Microsome.

The target of assay [2] is T2, Type-2 angiotensin II receptor (Rattus norvegicus, UniProt P35351).
T2 sequence (P35351 whole entry): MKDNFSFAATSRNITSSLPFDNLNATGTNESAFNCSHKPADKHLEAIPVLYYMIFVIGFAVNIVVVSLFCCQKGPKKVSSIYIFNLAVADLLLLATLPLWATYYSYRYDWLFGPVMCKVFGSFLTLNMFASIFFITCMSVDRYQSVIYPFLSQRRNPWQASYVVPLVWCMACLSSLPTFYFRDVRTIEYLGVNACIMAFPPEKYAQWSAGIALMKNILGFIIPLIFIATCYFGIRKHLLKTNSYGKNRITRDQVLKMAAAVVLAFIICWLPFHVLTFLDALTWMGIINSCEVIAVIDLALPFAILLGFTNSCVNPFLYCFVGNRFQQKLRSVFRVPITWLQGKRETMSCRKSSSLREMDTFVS
Put plainly: Binding affinity towards Angiotensin II receptor, type 2 in rat isolated adrenal medullary microsomes. The arrangement: species or system Adrenal medulla, Microsome.

Assay [3] has as its target T2, Type-2 angiotensin II receptor. Put plainly: Binding affinity towards angiotensin II AT2 receptor subtype was determined using rat isolated adrenal […] microsomes.

Take `COC(=O)C1Cc2c(C)cccc2CN1C(=O)C(c1ccccc1)c1ccccc1` (centres undefined): the half-maximal inhibitory concentration (IC50) in assay [1] was over 10000 nM; in assay [2] it was 5000 nM.
The corresponding values for `Cc1cccc2c1CC(C(=O)O)N(C(=O)C(c1ccccc1)c1ccccc1)C2` (centres undefined) are over 10000 nM and 300 nM.
Taken in the same sequence, the figures for `O=C(O)C1Cc2c(cccc2-c2ccccc2)CN1C(=O)C(c1ccccc1)c1ccccc1` (centres undefined) were over 10000 nM and 40 nM.
The corresponding values for `COC(=O)C1Cc2c(Cc3ccc(OC)cc3)cccc2CN1C(=O)C(c1ccccc1)c1ccccc1` (centres undefined) are over 10000 nM and over 10000 nM.
Consider `O=C(O)C1Cc2ccccc2CN1C(=O)C(c1ccccc1)c1ccccc1` (centres undefined), for which the IC50 in assay [1] is over 30000 nM; in assay [2], 2500 nM.
Taken in the same sequence, the figures for `O=C(O)C1Cc2cc(-c3ccccc3)ccc2CN1C(=O)C(c1ccccc1)c1ccccc1` (centres undefined) were over 10000 nM and 30 nM.
The corresponding values for `CN(C(=O)N1Cc2ccc(Oc3ccccc3)cc2CC1C(=O)O)c1ccccc1` (centres undefined) are over 10000 nM and 300 nM.
The corresponding values for `COc1ccc(Cc2cccc3c2CC(C(=O)O)N(C(=O)N(c2ccccc2)c2ccccc2)C3)cc1` (centres undefined) are 10000 nM and 200 nM.
As to `COc1ccc(Cn2cnc3c2C[C@@H](C(=O)O)N(C(=O)C(c2ccccc2)c2ccccc2)C3)cc1C`, the IC50 in assay [3] was found to be 10 nM.
For the compound `CCCCCc1cccc2c1CC(C(=O)O)N(C(=O)C(c1ccccc1)c1ccccc1)C2` (centres undefined), the results for the IC50 in assay [1] and in assay [2] were over 10000 nM and 40 nM, respectively.
The corresponding values for `COc1ccc(Cc2cccc3c2CC(C(=O)O)N(C(=O)C(c2ccccc2)c2ccccc2)C3)cc1C` (centres undefined) are 5000 nM and 100 nM.
The corresponding values for `COc1ccc(Cc2cccc3c2CC(C(=O)O)N(C(=O)C(c2ccccc2)c2ccccc2)C3)cc1` (centres undefined) are 7000 nM and 90 nM.
Consider `COc1ccc(-c2cccc3c2CC(C(=O)O)N(C(=O)C(c2ccccc2)c2ccccc2)C3)cc1C` (centres undefined), for which the 50% inhibitory concentration (IC50) is over 10000 nM in assay [1] and 70 nM in assay [2].
Taken in the same sequence, the figures for `COC(=O)C1Cc2c(Cc3ccccc3)cccc2CN1C(=O)C(c1ccccc1)c1ccccc1` (centres undefined) were over 10000 nM and 7000 nM.
In the case of `COc1ccc(Cc2cccc3c2CC(C(=O)O)N(C(=O)N(C)c2ccccc2)C3)cc1` (centres undefined), the IC50 in assay [1] was over 10000 nM; in assay [2], 400 nM.
For the compound `O=C(O)C1Cc2cc(Oc3ccccc3)ccc2CN1C(=O)C(c1ccccc1)c1ccccc1` (centres undefined), the IC50 is over 10000 nM in assay [1] and 60 nM in assay [2].
`COc1ccc(-c2cccc3c2CC(C(=O)O)N(C(=O)C(c2ccccc2)c2ccccc2)C3)cc1` (centres undefined): the IC50 in assay [1] was 10000 nM; in assay [2], 40 nM.
As to `O=C(O)C1Cc2cc(O)ccc2CN1C(=O)C(c1ccccc1)c1ccccc1` (centres undefined), the IC50 in assay [1] was over 10000 nM; in assay [2], 600 nM.
For the compound `COC(=O)C1Cc2c(cccc2-c2ccc(OC)cc2)CN1C(=O)C(c1ccccc1)c1ccccc1` (centres undefined), the IC50 in assay [1] is over 10000 nM; in assay [2], 2000 nM.
Taken in the same sequence, the figures for `COC(=O)C1Cc2c(cccc2-c2ccccc2)CN1C(=O)C(c1ccccc1)c1ccccc1` (centres undefined) were over 10000 nM and 2000 nM.
The corresponding values for `O=C(O)C1Cc2c(Cc3ccccc3)cccc2CN1C(=O)C(c1ccccc1)c1ccccc1` (stereo in doubt; 21) are 10000 nM and 90 nM.
Take `O=C(O)C1Cc2c(Cc3ccccc3)cccc2CN1C(=O)C(c1ccccc1)c1ccccc1` (stereo in doubt; 22): the IC50 in assay [2] amounted to 70 nM. This lies in the double-digit nanomolar range.
Turning to `O=C(O)C1Cc2c(Cc3ccccc3)cccc2CN1C(=O)C(c1ccccc1)c1ccccc1` (stereo in doubt; 23), the figures for the IC50 in assay [1] and in assay [2] were 4000 nM and 80 nM, respectively.
